Measured values reported in patent publication US20220096516A1, “OLIGONUCLEOTIDE MOLECULE AND APPLICATION THEREOF IN TUMOR THERAPY” (Ractigen Therapeutics, priority 2019, published 2022).
d = 2'-deoxy (DNA); r = 2'-OH (RNA)

Experiments:
[1] = system: prostatic cancer cell line PC3; test: Cell viability by CCK-8 method, PC3; format: cell-based, human; settings: PC3, 10 nM, 72 h, FIG. 7B
Description: (§1) 8 LHPP promoter-targeting saRNAs were individually transfected into cancer cells at 10 nM for 72 h. In FIG. 7A, the expression level of LHPP mRNA was analyzed by RT-qPCR. In FIG. 7B, cell viability in the saRNA treatment group was evaluated by the CCK-8 method and recorded as a percentage relative to the viability of cells in a control (Mock) treatment group.
(§2) The cell viability was detected by the following CCK-8 method: the cCells were plated into a 96-well plate at 3-5×10^3 cells/well, cultured overnight, and transfected with the oligonucleotide duplexes. After 72 hour of transfection, 10 uL of CCK-8 solution (Dojindo Molecular Technologies) was added into each well. After 1 hour of incubation at 37° C., a microplate reader was used to measure absorbances at 450 nm.
(§3) In order to further evaluate the effect of LHPP saRNAs in inducing the mRNA expression of the LHPP gene and inhibiting the proliferation of cancer cells, eight screened saRNAs (RAG7-132, RAG7-133, RAG7-139, RAG7-177, RAG7-178, RAG7-694, RAG7-707 and RAG7-892) each were transfected into the liver cancer cell lines Huh7 (Medical Cell Resource Center, Tohoku University, Japan), HepG2 (ATCC), Hep3B (ATCC), Li-7 (Medical Cell Resource Center, Tohoku University, Japan) and SK-HEP-1 (ATCC), a lung cancer cell line A549 (ATCC), a bladder cancer cell line T24 (ATCC), a prostatic cancer cell line PC3 (ATCC), and a glioma cell line U87MG (ATCC). The mRNA expression and cell viability of the transfected cells were measured.

[2] = system: SK-HEP-1 cells; test: Cell viability by CCK-8 method, SK-HEP-1; format: cell-based, human; settings: SK-HEP-1, 10 nM, 72 h, FIG. 6B
Description: as §1, with “into liver” for “into”, “6A,” for “7A,”, “6B,” for “7B,”
as §2, with “nm. […]” for “nm.”

[3] = system: lung cancer cell line A549; test: Cell viability by CCK-8 method, A549; format: cell-based, human; settings: A549, 10 nM, 72 h, FIG. 7B
Description: as §1, §2, §3

[4] = system: Hep3B cells; test: Cell viability by CCK-8 method, Hep3B; format: cell-based, human; settings: 10 nM, 72 h, FIG. 6B
Description: as §1, with “into liver” for “into”, “6A,” for “7A,”, “6B,” for “7B,”
as §2, with “nm. […]” for “nm.”

[5] = system: HepG2 cells; test: Cell viability by CCK-8 method, HepG2; format: cell-based, human; settings: HepG2, 10 nM, 72 h, FIG. 6B
Description: as §1, with “into liver” for “into”, “6A,” for “7A,”, “6B,” for “7B,”
as §2, with “nm. […]” for “nm.”

[6] = system: Huh7 cells; test: Cell viability by CCK-8 method, Huh7; format: cell-based, human; settings: Huh7, 10 nM, 72 h, FIG. 6B
Description: The 290 saRNAs targeting the LHPP promoter were individually transfected into Huh7 cells, and 72 hour later, one-step RT-qPCR was employed to analyze the expression levels of LHPP mRNA and cell viability was detected by the CCK-8 method.
as §2, §3

[7] = system: bladder cancer cell line T24; test: Cell viability by CCK-8 method, T24; format: cell-based, human; settings: T24, 10 nM, 72 h, FIG. 7B
Description: as §1, §2, §3

[8] = system: LHPP gene; test: High-throughput screening of saRNAs targeting LHPP promoter: LHPP mRNA by one-step RT-qPCR in Huh7 cells; format: cell-based, human; settings: 10 nM saRNA, 72 hours, relative to control (Mock)
Outline: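 LHPP transcript level relative to mock, normalised to the geometric mean of the HPRT1 and TBP reference genes, measured by one-step RT-qPCR on crude lysates. Huh7 cells had been RNAiMax-transfected with each saRNA at 10 nM for 72 h.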

[9] = system: LHPP gene; test: LHPP mRNA expression by RT-qPCR in cancer cell lines; format: cell-based, human; settings: 72 h
Description: as §1, with “into liver” for “into”, “6A,” for “7A,”, “6B,” for “7B,”
as §1, §3

[10] = system: glioma cell line U87MG; test: Cell viability by CCK-8 method, U87MG; format: cell-based, human; settings: 10 nM, 72 h, FIG. 7B
Description: as §1, §2, §3

[11] = system: HepG2 transplanted tumor; test: HepG2 transplanted tumor growth in nude mice; design: species or system BALB/c nude mice; settings: HepG2 xenograft, day 13; saRNA (in vivo-jetPEI) 1 mg/kg intratumor days 1, 4, 7, 10; regorafenib 3 mg/kg intragastric daily day 1-12; vehicle 118%
Description: To prepare the saRNA formulation, the in vivo-jetPEI (201-10G, Polyplus-transfection, France) was adopted as an saRNA delivery system. The preparation process is briefly described as follows. An saRNA was first diluted in 10% glucose solution to obtain a solution A. According to the instructions of the manufacturer, a required amount of in vivo-jetPEI was diluted in 10% glucose solution to obtain a solution B. Equal volumes of the solution A and the solution B were mixed (nitrogen-to-phosphorus ratio: 8; final concentration of glucose: 5%). After mixing, the mixture was let to stand at room temperature for 15 minutes for later use.
HepG2 cells in the logarithmic growth phase were obtained and counted, and then the cell suspension was regulated to 5×10^7 cells/mL and subcutaneously inoculated into the right armpit of BALB/c nude mice at a volume of 0.1 mL per mouse. […] Starting from the initial administration, the long diameter and the short diameter of each tumor were measured with a vernier caliper every two days. The tumor volume was calculated according to the formula V=(l×w^2)/2, wherein 1 represents the longest diameter of the tumor and w represents the diameter parallel to the surface of the tumor and perpendicular to the long diameter. A tumor growth curve and size and morphology of the tumor after anatomy were recorded during the administration.

[12] = system: U87MG transplanted tumor; test: U87MG transplanted tumor growth in nude mice; design: species or system BALB/c nude mice; settings: U87MG xenograft, day 13; saRNA (in vivo-jetPEI) 1 mg/kg intratumor days 1, 4, 7, 10; regorafenib 3 mg/kg intragastric daily day 1-12; control 406%
Description: To prepare the saRNA formulation, in vivo-jetPEI (201-10G, Polyplus-transfection, France) was adopted as an saRNA delivery system. The preparation process is briefly described as follows: an saRNA was first diluted in a 10% glucose solution to give a solution A; a required amount of in vivo-jetPEI was diluted in 10% glucose solution to give a solution B; then, equal volumes of the solution A and the solution B were mixed (nitrogen-to-phosphorus ratio: 8; final concentration of glucose: 5%). After mixing the mixture was let to stand under room temperature for 15 minutes for later use.
The glioma cell line U87MG were grown to the logarithmic phase, counted, then subcutaneously inoculated at a concentration of 9×10^7 cells/mL into the right armpit of BALB/c nude mice at 0.1 mL per mouse. […] After the initial administration, the long diameter and short diameter of each tumor were measured with a vernier caliper every two days. The tumor volume was calculated according to the formula V=(l×w^2)/2, wherein 1 represents the longest diameter of the tumor and w represents the diameter parallel to the surface of the tumor and perpendicular to the long diameter. A tumor growth curve and size and morphology of the tumor anatomy were recorded during the administration.

Compound | cell proliferation (cell viability, CCK-8) [1] | cell proliferation (cell viability, CCK-8) [2] | cell proliferation (cell viability, CCK-8) [3] | cell proliferation (cell viability, CCK-8) [4] | cell proliferation (cell viability, CCK-8) [5] | cell proliferation (cell viability, CCK-8) [6] | cell proliferation (cell viability, CCK-8) [7] | Fold of changes in relative LHPP mRNA expression level [8] [fold] | Fold of changes in relative LHPP mRNA expression level (log2) [8] [log2] | expression of LHPP gene (mRNA) ([9]; A549, 10 nM, FIG. 7A) | expression of LHPP gene (mRNA) ([9]; Hep3B, 10 nM, FIG. 6A) | expression of LHPP gene (mRNA) ([9]; HepG2, 10 nM, FIG. 6A) | expression of LHPP gene (mRNA) ([9]; Huh7, 10 nM, FIG. 6A) | expression of LHPP gene (mRNA) ([9]; PC3, 10 nM, FIG. 7A) | expression of LHPP gene (mRNA) ([9]; SK-HEP-1, 10 nM, FIG. 6A) | expression of LHPP gene (mRNA) ([9]; T24, 10 nM, FIG. 7A) | cell proliferation (cell viability, CCK-8) [10] | expression of LHPP gene (mRNA) ([9]; U87MG, 10 nM, FIG. 7A) | tumor volume increase compared with that at the beginning of treatment [11] [%] | tumor volume increase compared with that at the beginning of treatment [12] [%]
RAG7-694: saRNA duplex; sense AGGUCCUAUGCAUCCUCAUTT (SEQ ID NO: 3), antisense AUGAGGAUGCAUAGGACCUTT (SEQ ID NO: 167) (sugars from the 5' end r19 d2, backbone not given here) | inhibited cell proliferation | inhibited cell proliferation | inhibited cell proliferation | inhibited cell proliferation | inhibited cell proliferation | inhibited cell proliferation | inhibited cell proliferation | 1.88 | 0.91 | induced the expression of LHPP gene to different degrees | induced the expression of LHPP gene to different degrees | induced the expression of LHPP gene to different degrees | induced the expression of LHPP gene to different degrees | induced the expression of LHPP gene to different degrees | induced the expression of LHPP gene to different degrees | induced the expression of LHPP gene to different degrees |  |  |  | 
RAG7-177: saRNA duplex; sense AUUUGCCUUUGACCUUUCUTT (SEQ ID NO: 6), antisense AGAAAGGUCAAAGGCAAAUTT (SEQ ID NO: 170) (sugars from the 5' end r19 d2, backbone not given here) |  |  | inhibited cell proliferation |  |  |  | inhibited cell proliferation | 1.74 | 0.80 | induced the expression of LHPP gene to different degrees |  |  |  |  |  | induced the expression of LHPP gene to different degrees | inhibited cell proliferation | induced the expression of LHPP gene to different degrees |  | 
CNC(=O)c1cc(Oc2ccc(NC(=O)Nc3ccc(Cl)c(C(F)(F)F)c3)c(F)c2)ccn1 [regorafenib, Regorafenib, reference compound] |  |  |  |  |  |  |  |  |  |  |  |  |  |  |  |  |  |  | 70 | 251
RAG7-178: saRNA duplex; sense AAUUUGCCUUUGACCUUUCTT (SEQ ID NO: 5), antisense GAAAGGUCAAAGGCAAAUUTT (SEQ ID NO: 169) (sugars from the 5' end r19 d2, backbone not given here) | inhibited cell proliferation |  | inhibited cell proliferation |  |  |  |  | 1.76 | 0.82 | induced the expression of LHPP gene to different degrees |  |  |  | induced the expression of LHPP gene to different degrees |  |  | inhibited cell proliferation | induced the expression of LHPP gene to different degrees |  | 
